Laboratory results taken from patent US20240009214A1 (priority 2020, published 2024).
Where a name gives a salt, the structure may show the parent alone.

Columns and labels:
[1] = In vitro toxicity in WI-38 cells (MTS-PMS kit); type: cell-based; settings: human, WI-38 human lung fibroblast cells, read-out: IC50 (cytotoxicity)
Excerpt: (§1) The toxicity of ((((((R)-1-(6-amino-9H-purin-9-yl) propan-2-yl) oxy) methyl) (phenoxy) phosphoryl)oxy)methyl pivalate fumarate and Metabolite of compound of formula 1 in different human lung cells viz, WI-38 (human lung fibroblast cells) and Calu-3 (human lung bronchial cells) by using the MTS-PMS kit investigated.
(§2) MTS-PMS kit details (CellTiter 96@ Aqueous kit)
This is a colorimetric method for determining the number of viable cell measures viable cells in proliferation, cytotoxicity or chemosensitivity assays. The assay is composed of solutions of a novel tetrazolium compound [3-(4,5-dimethylthiazol-2-yl)-5-(3-carboxymethoxyphenyl)-2-(4-sulfophenyl)-2H-tetrazolium, inner salt; MTS] and an electron coupling reagent (phenazine methosulfate) PMS. MTS is bioreduced by cells into a formazan product that is soluble in tissue culture medium. The absorbance of the formazan product at 490 nm can be measured directly from 96-well assay plates without additional processing. The conversion of MTS into the aqueous soluble formazan product is accomplished by dehydrogenase enzymes found in metabolically active cells. The quantity of formazan product as measured by the amount of 490 nm absorbance is directly proportional to the number of living cells in culture.
Respective cells were harvested from exponential phase cultures, […] on the cell line's growth rate. After a 24 h recovery period to allow the cells to resume exponential growth. TPF or Metabolite of compound of formula 1 was applied at 6-8 concentrations in duplicate and treatment continued for different time points. After completion of incubation 20 μL/well MTS-PMS reagent was added to each well (MTS-PMS was prepared as follows: CellTiter 96@AQueous Assay Reagents MTS Solution and the PMS Solution should be thawed before use. Remove 2.0 ml of MTS Solution. Add […] of PMS Solution to the 2.0 ml of MTS Solution immediately). Following an incubation period of up to four hours, the plate was read to 490 nm. For calculations, the mean values of duplicate data were used. Sigmoidal concentration-response curves were fitted to the data points (T/C values) obtained for each cell line using 4 parameter non-linear curve fit.
Cells were harvested from exponential phase cultures, […] on the cell line's growth rate. After a 24 h recovery period to allow the cells to resume exponential growth. TPF or Metabolite of compound of formula 1 was applied at 6-8 concentrations in duplicate and treatment continued for different time points. For Calu-3 cells the treatment was the treatment was for 72 hrs while WI-38 cells were treated for 48 and 96 hrs. After the treatment of cells, 20 μL/well MTS-PMS reagent was added. Following an incubation period of up to four hours, the plate was read to 490. […]

[2] = test system: SARS-COV-2 strain NIV 2020-770; test: microbe, parasite or virus in culture; type: cell-based; settings: for IC50: Severe acute respiratory syndrome coronavirus 2, 72 h; for SI (selectivity index): against SARS-CoV-2
[3] = Cell cytotoxicity determination (MTT) in Vero CCL-81 cells; type: cell-based; settings: monkey
Procedure: Cell Cytotoxicity determination: 100 μL Vero CCL-81 cells were seeded on to 96 well plate at a density of 3×10^6 cells/mL. The plates were incubated for 24 hrs at 37° C. with 5% CO2. After overnight incubation the spent medium was discarded and 100 μL of different concentrations of each drugs prepared earlier from the stock was added to the respective wells in quadruplets. The plates were incubated for 72 hr at 37° C. in 5% CO2. After the incubation, the medium containing drug was discarded. The cell monolayer was washed by adding 100 μL of 1×PBS. 100 μL of plain MEM and 50 μl of MTT (2 mg/ml concentration) was added to each well. Followed by incubation for 4 hrs at 37° C. in 5% CO2. At the end of incubation, the cell supernatant was discarded and 200 μl of DMSO was added to each well to dissolve the formazan crystals. 25 μL of Sorensen's glycine buffer was added immediately to each well. The plates were incubated in dark for 30 min at room temperature. The OD was measured at 570 nm using ELISA plate reader. CC50 value was plotted using Prism Pad application.

[4] = In vitro toxicity in Calu-3 cells (MTS-PMS kit); type: cell-based; settings: human, Calu-3 human lung bronchial cells, read-out: IC50 (cytotoxicity)
Excerpt: as §1, §2
This is a colorimetric method for determining the number of viable cell measures viable cells in proliferation, cytotoxicity or chemosensitivity assays. […] The absorbance of the formazan product at 490 nm can be measured directly from 96-well assay plates without additional processing. […] The quantity of formazan product as measured by the amount of 490 nm absorbance is directly proportional to the number of living cells in culture.
Respective cells were harvested from exponential phase cultures, […] on the cell line's growth rate. […] Following an incubation period of up to four hours, the plate was read to 490 nm. […]
Cells were harvested from exponential phase cultures, […] on the cell line's growth rate. […] Following an incubation period of up to four hours, the plate was read to 490. […]

[5] = test system: A549 (human lung alveolar cells) monolayer
in vitro = settings: human

Structure (SMILES)	IC50 at 48 h [1] [µM]	IC50 at 96 h [1] [µM]	IC50 [2] [µM]	SI (selectivity index) ([2]; window between cytotoxicity (CC50) and antiviral activity (IC50), fumarate)	SI (selectivity index) ([2]; window between cytotoxicity (CC50) and antiviral activity (IC50); fumarate))	CC50 at 72 h [3] [µM]	IC50 at 72 h [4] [µM]	permeability classification [5]	P-app ([5]; apical to basal) [×10⁻⁶ cm/s]	SI (selectivity index) ([2]; window between cytotoxicity (CC50) and antiviral activity (IC50))	SI (selectivity index) ([2]; window between cytotoxicity (CC50) and antiviral activity (IC50), listed as compound of formula 2)	Papp A→B (in vitro) [×10⁻⁶ cm/s]
C[C@H](Cn1cnc2c(N)ncnc21)OC[P@@](=O)(OCOC(=O)C(C)(C)C)Oc1ccccc1 [((((((R)-1-(6-amino-9H-purin-9-yl)propan-2-yl)oxy)methyl) (phenoxy)phosphoryl)oxy)methyl pivalate fumarate]	> 100	> 100	< 1	>100	> 100	> 100	> 100	highly permeable	> 20	–	–	–
C[C@H](Cn1cnc2c(N)ncnc21)OCP(=O)(O)Oc1ccccc1 [Compound of formula 2, tenphenol]	> 100	> 100	~12	–	–	> 100	> 100	moderately permeable	–	>8.33	8.33	< 20
